From patent US20200123271A1, “COMPOSITION FOR ENHANCING SENSITIVITY OF PROSTATE CANCER TO ANTICANCER DRUG AND USE THEREOF” (KOREA INSTITUTE OF SCIENCE AND TECHNOLOGY, priority 2018, published 2020)

Legend:
Format in all cases: cell-based
[1] = tested on: TMPRSS2-ERG gene; assay: Expression of TMPRSS2-ERG gene by RNA extraction, cDNA synthesis and PCR; conditions: CRISPR treated in combination with 30 μM casodex, 48 hours (FIG. 2C)
Method: To identify whether the ERG gene of the cell line prepared in Example 2 was knocked out, expression of the gene was identified by extracting RNA and synthesizing cDNA.
NCI-H660 and LNCaP cell lines were seeded on 6-well plates at a density of 2×10^5 cells/well. After 24 hours, the cells were treated with CRISPR ERG, CRISPR TMPRSS2-ERG, and 30 μM casodex, respectively, for 48 hours. 1 mL of Trizol was added thereto to lyse the cells and the samples were homogenized by voltexing. 100 μL of chloroform was added thereto to separate RNA included in a transparent upper aqueous layer from proteins included in a lower organic layer. The solution was vigorously shaken and incubated at room temperature for 3 minutes. The resultant was centrifuged at 4° C. for 15 minutes at 13,000 rpm to obtain a clean aqueous layer including total RNA. Subsequently, the supernatant of the sample was transferred to a new tube and […] of isopropanol was added to each sample to precipitate RNA. The sample was incubated at room temperature for 10 minutes, and then centrifuged at 13,000 rpm at 4° C. for 15 minutes to obtain pellets of total RNA. Then, the supernatant was decanted and RNA was washed with 1 mL of 75% ethanol. […] RNA was resuspended in RNase-free water and absorbance of RNA was measured at 260 nm to determine a concentration of RNA. […]

[2] = tested on: LNCaP cells; assay: Cell viability, CellTiter 96 aqueous one solution cell proliferation assay
Method: (§1) NCI-H660 and LNCaP cells were seeded on transparent 96-well plates at a density of 10^4 cells/well. […] 10 μL of a CellTiter 96 aqueous one solution cell proliferation assay buffer (Promega, USA) was added thereto, followed by incubation at 37° C. for 1 hour. Then, cell viability was evaluated by measuring absorbance at […].
(§2) NCI-H660 and LNCaP cells were seeded on transparent 96-well plates at a density of 10^4 cells/well. After 24 hours, the cells were treated with CRISPR ERG, CRISPR TMPRSS2-ERG, and 30 μM casodex, respectively, for 48 hours. 10 μL of a CellTiter 96 aqueous one solution cell proliferation assay buffer (Promega, USA) was added thereto, followed by incubation at 37° C. for 1 hour. Then, cell viability was evaluated by measuring absorbance at […].

[3] = tested on: NCI-H660 cells; assay: as above
Method: as §1, §2

[4] = tested on: caspase 3/7; assay: Expression of caspase 3/7 (luminescence assay)
Method: NCI-H660 and LNCaP cells were seeded on black transparent bottom 96-well plates at a density of 10^4 cells/well. After 24 hours, the cells were treated with CRISPR ERG, crisprTMPRSS2-ERG, and 30 μM casodex, respectively, for 48 hours. 50 μL of a caspase 3/7 assay buffer (Promega, USA) was added thereto, followed by incubation at room temperature for 1 hour. Then, the activity of caspase 3/7 was detected by measuring luminescence.

[5] = tested on: pgp; assay: Expression of Pgp (pgp-glo assay, ATP level by luminescence)
Method: NCI-H660 and LNCaP cells were seeded on white transparent bottom 96-well plates at a density of 10^4 cells/well. After 24 hours, the cells were treated with CRISPR ERG, crisprTMPRSS2-ERG, and 30 μM casodex, respectively, for 48 hours. 20 μL of a pgp-glo assay buffer (Promega, USA) was added to all wells except for Na3VO4 condition. 20 μL of 0.25 mM Na3VO4 was added to the Na3VO4 condition. Reaction was initiated by adding 10 μL of 25 mM MgATP. The plates were mixed for a while and then incubated at 37° C. for 40 minutes. The 40 μL of an ATP detection reagent was added to all wells. Then, the plates were incubated at room temperature for 20 minutes and luminescence was measured.

[6] = tested on: alpha tubulin, beta3 tubulin; assay: Activity of tubulin protein (Western blotting); conditions: LNCaP cells, knock-out (FIG. 4)
Method: NCI-H660 and LNCaP cell lines were seeded on 6-well plates at a density of 2×10^5 cells/well. After 24 hours, the cells were treated with CRISPR ERG, CRISPR TMPRSS2-ERG, and 30 μM casodex, respectively, for 48 hours. The cells were lysed using Pro-prep protein extraction solution (Intron Biotechnology, South Korea). Cell lysates were quantified using a BCA protein assay kit (Thermo Fisher Scientific, USA).
Then, the expression of proteins was identified by Western blotting. Specifically, SDS 5× loading buffer was added to protein samples diluted to 10-20 μg and heated for 5 minutes. The samples were placed in 4-20% Mini-protean TGX gel (Biorad, USA) and run at 120 V for 60 minutes. Then, the gel was transferred to a nitrocellulose membrane at 300 mA for 90 minutes. The membrane was blocked by 3% BSA in PBS and incubated overnight with a primary antibody in PBS containing 1% BSA at 4° C. The membrane was washed three times with PBS containing with 0.01% Tween 20. A secondary antibody was cultured in a PBS containing 1% BSA for 1 hour at room temperature. The membrane was washed three times with PBS containing 0.01% Tween 20. Then, the membrane was visualized with LAS-3000 (Fujifilm, Japan).

[7] = LNCaP cells, knock-out in combination with 30 μM casodex (FIG. 3C)
[8] = normal and resistant LNCaP cells, knock-out alone (FIG. 3C)

Which results are given for CC(O)(CS(=O)(=O)c1ccc(F)cc1)C(=O)Nc1ccc(C#N)c(C(F)(F)F)c1 (stereo not drawn) [casodex]?
expression level of TMPRSS2-ERG gene ([1]; LNCaP cell line): significantly reduced; expression level of TMPRSS2-ERG gene ([1]; NCI-H660 cell line): significantly reduced; cell viability ([2]; 30 μM casodex in combination with CRISPR TMPRSS2-ERG, 48 hours, compared with CRISPR TMPRSS2-ERG alone (FIG. 2A)): significantly reduced; cell viability ([2]; casodex concentration in the range of 100 μM to 200 μM (FIG. 2A)): significantly reduced; cell viability ([3]; 30 μM casodex in combination with CRISPR TMPRSS2-ERG, 48 hours, compared with CRISPR TMPRSS2-ERG alone (FIG. 2B)): significantly reduced; cell viability ([3]; casodex concentration in the range of 100 μM to 200 μM (FIG. 2B)): significantly reduced; expression of caspase 3/7 ([4]; 30 μM casodex in combination with CRISPR TMPRSS2-ERG, 48 hours, compared with CRISPR TMPRSS2-ERG alone (FIG. 2D)): more significantly increased

Which results are given for “CRISPR ERG: CRISPR sgRNA for ERG, 5′TGCCTACGGAACGCCACACCTGG 3′, delivered with Cas9 nuclease to knock out ERG (listed as DNA, chemistry not given here; the letters are possibly those of the target site)”?
ATP level [5, 7]: significantly increased; ATP level [5, 8]: significantly increased; amount of polymeric alpha tubulin [6]: decreased; amount of water-soluble alpha tubulin [6]: increased; beta3 tubulin [6]: no significant difference

For “CRISPR TMPRSS2-ERG: CRISPR sgRNA for TMPRSS2-ERG, 5′AAGGCTTCCTGCCGCGCTCCAGG 3′, delivered with Cas9 nuclease to knock out TMPRSS2-ERG (listed as DNA, chemistry not given here; the letters are possibly those of the target site)”, which ATP level [5, 7] is on record?
The ATP level was “significantly increased”.

And the ATP level [5, 8]?
Its ATP level is “significantly increased”.

And the “amount of polymeric alpha tubulin” value [6]?
The value was “decreased”.

And the “amount of water-soluble alpha tubulin” value [6]?
Its value is “increased”.

What about the beta3 tubulin [6] of the same compound?
Its beta3 tubulin is “no significant difference”.

What about the “expression of caspase 3/7” value ([4]; cell line treated with CRISPR TMPRSS2-ERG alone, 48 hours (FIG. 2D)) of the same compound?
Its value is “significantly increased”.
